The source of these data is patent EP2181589A1, “Neurotoxic sterol glycosides” (Shaw, Christopher Ariel, priority 2008, dated 2010).

Data set [1] has as its system Dopaminergic cells Tyrosine Hydroxylase. The data set can be described thus: Tyrosine hydroxylase immunohistochemistry. The class given is in vivo, CD-1 mice. As to conditions: SG-fed animals, either time-point. The method, then:
(§1) The synthetic SG was mixed with finely ground Purina Chow mouse pellets (Mouse Diet™, Purina) to create the experimental pellets with a SG content of 1000 µg per pellet. Dry materials were blended with a sterile silicon spatula. For every 5 g of standard feed, 2.5 mL of doubly-distilled water (dd)H2O was added and the dough was kneaded and round up into pellets. A single sterol glucoside containing pellet was placed in the feeding tray each morning before the addition of regular mouse chow (ad libitum). All experimental pellets were entirely consumed by the mice each day. Control mice were fed standard mouse chow pellets of identical weight with no additives. SG feeding was conducted daily for 15 weeks and mice were behaviorally monitored until sacrifice at 35 weeks (time point 1) or 52 weeks (time point 2).
Tissue-mounted slides were processed for fluorescence microscopy as follows: Sections were rinsed in coplin jars for 45 minutes at room temperature (RT) in three changes of PBS. Sections were then incubated at RT for 30 minutes in a blocking permeabilization solution made of 5% normal goat serum (NGS), 5% normal rabbit serum (NRS) or 5% BlokHen II (Aves Labs, Inc., Tigard, OR), 0.05% Triton X-100 and PBS. Subsequently, the blocking solution was tipped off and the slides were rinsed in PBS for 2 minutes. […]

The next data set relates to CD-1 mice. The data set can be described thus: Wire hang test. In kind it is in vivo. The protocol: Five-month old male CD-1 mice (30.1-35.7 g, 7.5 cm - 8.8 cm) were purchased from Charles River (Wilmington, MA). Adult mice were chosen to mimic the mean age of onset of ALS-PDC (Kurland, 1988; Kurland et al., 1994). Thirty mice for the SG study were randomly divided into 2 groups (14 control and 16 experimental animals). All animals were housed singly in a virus-free barrier facility in a room maintained at 22°C under a 12 hour light/dark cycle. The mice were provided ad libitum access to food and water.
as §1
Wire hang: Neuromuscular strength was tested by the wire hang (or hanging wire) test (Wilson et al., 2003d; Wilson et al., 2004c; Wilson et al., 2005; Tabata et al., 2008). Both balance and grip strength are required for a mouse to keep its body suspended (Crawley, 2000). Mice were placed on a wire cage lid elevated 50 cm above a soft landing surface. The latency to fall off the wire (maximum 60 seconds) (Sango et al., 1996) was measured from the moment the wire apparatus was inverted (180°). Wire hang testing was conducted biweekly.

Molecules are shown by their SMILES.

Turning to `CCC(C=CC(C)C1CCC2C3CC=C4CC(OC5OC(CO)C(O)C(O)C5O)CCC4(C)C3CCC12C)C(C)C` (stereo not shown) [SG], the “decrease in TH optical density, striata” value in data set [1] is given as “not significant”. Moreover, in the data set with CD-1 mice (SG fed mice, control group showed an increase), the “increase in the time between inversion of the apparatus and falling” value is “did not”. For the same molecule, the Wirehang test performance result in the data set on CD-1 mice (SG-fed animals, prior to 35 weeks) was “decline in performance”. In the data set on CD-1 mice (SG-fed vs control, time-point 2, 52 wk), the Wirehang entry is reported as “Wirehang* (*p<0.05)”.
